In article PMC5218480 (PLoS ONE, 2017):

Tested on: MV-4-11 cells
Test: Gene expression microarray analysis (Affymetrix PrimeView) and GSEA
Format: cell-based, human
Parameters: RFU PODN (11730768_x_at) / Fold change /veh PODN (11730768_x_at) / RFU LINC00158 (11744669_a_at) / Fold change /veh LINC00158 (11744669_a_at) / RFU DUSP10 (11751237_a_at) / Fold change /veh DUSP10 (11751237_a_at) / RFU ID3 (11757404_x_at) / Fold change /veh ID3 (11757404_x_at) / RFU PLEKHG5 (11737974_s_at) / Fold change /veh PLEKHG5 (11737974_s_at) / RFU LRRC4B (11730491_at) / Fold change /veh LRRC4B (11730491_at) / RFU GIMAP4 (11747438_a_at) / Fold change /veh GIMAP4 (11747438_a_at) / RFU KRT8 (11758183_x_at) / Fold change /veh KRT8 (11758183_x_at) / RFU CNN1 (11734310_a_at) / Fold change /veh CNN1 (11734310_a_at) / RFU VPS37D (11726825_at) / Fold change /veh VPS37D (11726825_at) / RFU C10orf10 (11716522_x_at) / Fold change /veh C10orf10 (11716522_x_at) / RFU KIR2DL2 /// KIR2DL4 /// KIR2DL5A /// KIR2DL5B /// KIR2DS1 /// KIR2DS2 /// KIR2DS3 /// KIR2DS4 /// KIR3DL3 /// KIR3DL3 /// KIR3DS1 (11738374_at) / Fold change /veh KIR2DL2 /// KIR2DL4 /// KIR2DL5A /// KIR2DL5B /// KIR2DS1 /// KIR2DS2 /// KIR2DS3 /// KIR2DS4 /// KIR3DL3 /// KIR3DL3 /// KIR3DS1 (11738374_at) / RFU C1QL1 (11718748_at) / Fold change /veh C1QL1 (11718748_at) / RFU TMPRSS4 (11747572_a_at) / Fold change /veh TMPRSS4 (11747572_a_at) / RFU HAMP (11756126_x_at) / Fold change /veh HAMP (11756126_x_at) / RFU RNFT2 (11725882_a_at) / Fold change /veh RNFT2 (11725882_a_at) / RFU NR4A2 (11747474_a_at) / Fold change /veh NR4A2 (11747474_a_at) / RFU ABCC12 (11746883_a_at) / Fold change /veh ABCC12 (11746883_a_at) / RFU TMEM136 (11760407_x_at) / Fold change /veh TMEM136 (11760407_x_at) / RFU CLDN22 /// WWC2 (11732394_at) / Fold change /veh CLDN22 /// WWC2 (11732394_at) / RFU HLA-DPB1 (11760878_x_at) / Fold change /veh HLA-DPB1 (11760878_x_at) / RFU SPINT1 (11716480_a_at) / Fold change /veh SPINT1 (11716480_a_at) / RFU GAP43 (11754022_s_at) / Fold change /veh GAP43 (11754022_s_at) / RFU A4GNT (11735810_at) / Fold change /veh A4GNT (11735810_at) / RFU PRB3 (11715151_x_at) / Fold change /veh PRB3 (11715151_x_at) / RFU TUBB4B (11761932_at) / Fold change /veh TUBB4B (11761932_at) / RFU CAPN14 (11732068_a_at) / Fold change /veh CAPN14 (11732068_a_at) / RFU TMCC2 (11721928_a_at) / Fold change /veh TMCC2 (11721928_a_at) / RFU IRGQ (11745062_a_at) / Fold change /veh IRGQ (11745062_a_at) / RFU FAM174B (11720279_a_at) / Fold change /veh FAM174B (11720279_a_at) / RFU TMPRSS4 (11748680_a_at) / Fold change /veh TMPRSS4 (11748680_a_at) / RFU FAM212B (11763350_a_at) / Fold change /veh FAM212B (11763350_a_at) / RFU PLEKHG5 (11743358_a_at) / Fold change /veh PLEKHG5 (11743358_a_at) / RFU ZSCAN30 (11745921_a_at) / Fold change /veh ZSCAN30 (11745921_a_at) / RFU CMKLR1 (11741424_a_at) / Fold change /veh CMKLR1 (11741424_a_at) / RFU LOC101060620 /// MAPK8IP1 (11723275_at) / Fold change /veh LOC101060620 /// MAPK8IP1 (11723275_at) / RFU SPTSSB (11747773_x_at) / Fold change /veh SPTSSB (11747773_x_at) / RFU PRSS12 (11739890_at) / Fold change /veh PRSS12 (11739890_at) / RFU BIN1 (11741810_x_at) / Fold change /veh BIN1 (11741810_x_at) / RFU WNT11 (11732464_a_at) / Fold change /veh WNT11 (11732464_a_at) / RFU C10orf10 (11716521_a_at) / Fold change /veh C10orf10 (11716521_a_at) / RFU C5orf56 (11738089_at) / Fold change /veh C5orf56 (11738089_at) / RFU CYB561 (11721691_x_at) / Fold change /veh CYB561 (11721691_x_at) / RFU ANKRD19P (11752326_a_at) / Fold change /veh ANKRD19P (11752326_a_at) / RFU OR2T12 /// OR2T33 /// OR2T8 (11738714_s_at) / Fold change /veh OR2T12 /// OR2T33 /// OR2T8 (11738714_s_at) / RFU VCAN (11748164_a_at) / Fold change /veh VCAN (11748164_a_at) / RFU JSRP1 (11732532_at) / Fold change /veh JSRP1 (11732532_at) / RFU KRTAP10-11 (11738290_x_at) / Fold change /veh KRTAP10-11 (11738290_x_at) / RFU MYO3A (11730013_a_at) / Fold change /veh MYO3A (11730013_a_at) / RFU EBF3 (11725865_a_at) / Fold change /veh EBF3 (11725865_a_at) / RFU CAMK2N1 (11719241_x_at) / Fold change /veh CAMK2N1 (11719241_x_at) / RFU C5orf56 (11738088_a_at) / Fold change /veh C5orf56 (11738088_a_at) / RFU OLFML3 (11715873_a_at) / Fold change /veh OLFML3 (11715873_a_at) / RFU LOC100653217 /// NTM (11731650_a_at) / Fold change /veh LOC100653217 /// NTM (11731650_a_at) / RFU MAPK11 (11762145_a_at) / Fold change /veh MAPK11 (11762145_a_at) / RFU FIZ1 (11724087_x_at) / Fold change /veh FIZ1 (11724087_x_at) / RFU OASL (11726364_x_at) / Fold change /veh OASL (11726364_x_at) / RFU SOX15 (11748057_x_at) / Fold change /veh SOX15 (11748057_x_at) / RFU CD79A (11719716_a_at) / Fold change /veh CD79A (11719716_a_at) / RFU HIST1H1D (11736915_at) / Fold change /veh HIST1H1D (11736915_at) / RFU CASKIN2 (11723855_a_at) / Fold change /veh CASKIN2 (11723855_a_at) / RFU LOC730098 (11760151_x_at) / Fold change /veh LOC730098 (11760151_x_at) / RFU OR4N2 (11742367_at) / Fold change /veh OR4N2 (11742367_at) / RFU PRRT2 (11749266_a_at) / Fold change /veh PRRT2 (11749266_a_at) / RFU SNX32 (11753110_a_at) / Fold change /veh SNX32 (11753110_a_at) / RFU CDHR5 (11726645_a_at) / Fold change /veh CDHR5 (11726645_a_at) / RFU RCAN1 (11760418_a_at) / Fold change /veh RCAN1 (11760418_a_at) / RFU FAM167A (11723789_a_at) / Fold change /veh FAM167A (11723789_a_at) / RFU FAM26E (11764081_at) / Fold change /veh FAM26E (11764081_at) / RFU ISYNA1 (11749810_s_at) / Fold change /veh ISYNA1 (11749810_s_at) / RFU ACY1 (11761880_at) / Fold change /veh ACY1 (11761880_at) / RFU 11764098_at / Fold change /veh 11764098_at / RFU SAMD14 (11745864_x_at) / Fold change /veh SAMD14 (11745864_x_at) / RFU NPB (11741838_a_at) / Fold change /veh NPB (11741838_a_at) / RFU TMPRSS6 (11731388_a_at) / Fold change /veh TMPRSS6 (11731388_a_at) / RFU KRTAP10-2 (11738614_at) / Fold change /veh KRTAP10-2 (11738614_at) / RFU ARHGAP8 /// PRR5-ARHGAP8 (11727945_x_at) / Fold change /veh ARHGAP8 /// PRR5-ARHGAP8 (11727945_x_at) / RFU KRTAP5-7 /// NADSYN1 (11734609_at) / Fold change /veh KRTAP5-7 /// NADSYN1 (11734609_at) / RFU RASL12 (11751679_a_at) / Fold change /veh RASL12 (11751679_a_at) / RFU CDKN2B (11736163_a_at) / Fold change /veh CDKN2B (11736163_a_at) / RFU PRF1 (11729649_at) / Fold change /veh PRF1 (11729649_at) / RFU, ZNF638 /// ZNF638-IT1 / Fold change vs veh, ZNF638 /// ZNF638-IT1 / RFU, PANK3 / Fold change vs veh, PANK3 / RFU, SH3YL1 / Fold change vs veh, SH3YL1 / RFU, ZEB2 / Fold change vs veh, ZEB2 / RFU, NRIP1 / Fold change vs veh, NRIP1 / RFU, PTTG1IP / Fold change vs veh, PTTG1IP / RFU, CAPN2 / Fold change vs veh, CAPN2 / RFU, MED14 / Fold change vs veh, MED14 / RFU, SNORA58 / Fold change vs veh, SNORA58 / RFU, C1orf63 / Fold change vs veh, C1orf63 / RFU, LRRFIP1 / Fold change vs veh, LRRFIP1 / RFU, NDUFAF7 / Fold change vs veh, NDUFAF7 / RFU, SLC12A2 / Fold change vs veh, SLC12A2 / RFU, IBTK / Fold change vs veh, IBTK / RFU, ESF1 / Fold change vs veh, ESF1 / Fold change vs veh, TMEM50B / RFU, TAOK1 / Fold change vs veh, TAOK1 / RFU, ACBD3 / Fold change vs veh, ACBD3 / RFU, TMA16 / Fold change vs veh, TMA16 / RFU, RWDD3 / Fold change vs veh, RWDD3 / RFU, BCAT1 / Fold change vs veh, BCAT1 / RFU, EDEM3 / Fold change vs veh, EDEM3 / RFU, TMEM33 / Fold change vs veh, TMEM33 / RFU, WDR75 / Fold change vs veh, WDR75 / RFU, AHCTF1 / Fold change vs veh, AHCTF1 / RFU, TFRC / Fold change vs veh, TFRC / RFU, ZDHHC17 / Fold change vs veh, ZDHHC17 / RFU, NOM1 / Fold change vs veh, NOM1 / RFU, ARL8B / Fold change vs veh, ARL8B / RFU, ZBTB11 / Fold change vs veh, ZBTB11 / RFU, TAMM41 / Fold change vs veh, TAMM41 / RFU, KIAA1704 /// LOC100996395 / Fold change vs veh, KIAA1704 /// LOC100996395 / RFU, ING1 / Fold change vs veh, ING1 / RFU, TRMT61B / Fold change vs veh, TRMT61B / RFU, FUBP3 / Fold change vs veh, FUBP3 / RFU, TP53 / Fold change vs veh, TP53 / RFU, TNKS2 / Fold change vs veh, TNKS2 / RFU, ZFP14 / Fold change vs veh, ZFP14 / RFU, ACTR2 / Fold change vs veh, ACTR2 / RFU, PPP3R1 / Fold change vs veh, PPP3R1 / RFU, PIK3R1 / Fold change vs veh, PIK3R1 / RFU, HNRNPA1 / Fold change vs veh, HNRNPA1 / RFU, RNF170 / Fold change vs veh, RNF170 / RFU, ZNF28 / Fold change vs veh, ZNF28 / RFU, RNGTT / Fold change vs veh, RNGTT / RFU, OGT / Fold change vs veh, OGT / RFU, BRD1 / Fold change vs veh, BRD1 / RFU, MARS / Fold change vs veh, MARS / RFU, ZNF655 / Fold change vs veh, ZNF655 / RFU, FAHD1 / Fold change vs veh, FAHD1 / RFU, BDP1 / Fold change vs veh, BDP1 / RFU, LRRCC1 / Fold change vs veh, LRRCC1 / RFU, ARID1A / Fold change vs veh, ARID1A / RFU, ZNF146 / Fold change vs veh, ZNF146 / RFU, ZNF330 / Fold change vs veh, ZNF330 / RFU, GPN3 / Fold change vs veh, GPN3 / RFU, C9orf123 / Fold change vs veh, C9orf123 / RFU, N4BP2L2 / Fold change vs veh, N4BP2L2 / RFU, ARFIP1 / Fold change vs veh, ARFIP1 / RFU, FAM179B / Fold change vs veh, FAM179B / RFU, BCL10 / Fold change vs veh, BCL10 / RFU, UHRF1BP1L / Fold change vs veh, UHRF1BP1L / RFU, BET1 / Fold change vs veh, BET1 / RFU, CNOT2 / Fold change vs veh, CNOT2 / RFU, ZNF268 / Fold change vs veh, ZNF268 / Fold change vs veh, ZNF507 / RFU, DGCR2 / Fold change vs veh, DGCR2 / RFU, WDSUB1 / Fold change vs veh, WDSUB1 / Fold change vs veh, HSP90B1 /// MIR3652 / RFU, ADSS / Fold change vs veh, ADSS / RFU, GK / Fold change vs veh, GK / RFU, ZNF148 / Fold change vs veh, ZNF148 / RFU, TAF9 / Fold change vs veh, TAF9 / RFU, SLC1A5 / Fold change vs veh, SLC1A5 / RFU, SLMO2 / Fold change vs veh, SLMO2 / RFU, ABCC4 / Fold change vs veh, ABCC4 / RFU, LOC101060439 /// RAP1B / Fold change vs veh, LOC101060439 /// RAP1B / RFU, RFX7 / Fold change vs veh, RFX7 / RFU, GTPBP10 / Fold change vs veh, GTPBP10 / RFU, CNEP1R1 / Fold change vs veh, CNEP1R1 / RFU, BIVM-ERCC5 /// ERCC5 / Fold change vs veh, BIVM-ERCC5 /// ERCC5 / RFU, ILF3 / Fold change vs veh, ILF3 / RFU 11762660_at / Fold change /veh 11762660_at / RFU VCAN (11757783_s_at) / Fold change /veh VCAN (11757783_s_at) / RFU DDX43 (11728927_at) / Fold change /veh DDX43 (11728927_at) / RFU KRT8 (11758188_x_at) / Fold change /veh KRT8 (11758188_x_at) / RFU NKD1 (11759106_at) / Fold change /veh NKD1 (11759106_at) / RFU SRD5A1 (11742802_a_at) / Fold change /veh SRD5A1 (11742802_a_at) / RFU TPSAB1 /// TPSB2 (11721975_s_at) / Fold change /veh TPSAB1 /// TPSB2 (11721975_s_at) / RFU GSTM3 (11746129_a_at) / Fold change /veh GSTM3 (11746129_a_at) / RFU IL23R (11737362_x_at) / Fold change /veh IL23R (11737362_x_at) / RFU TMEM51 (11727254_a_at) / Fold change /veh TMEM51 (11727254_a_at) / RFU PIWIL2 (11732686_x_at) / Fold change /veh PIWIL2 (11732686_x_at) / RFU ORM1 (11744905_x_at) / Fold change /veh ORM1 (11744905_x_at) / RFU CCDC152 (11743942_at) / Fold change /veh CCDC152 (11743942_at) / RFU ECM1 (11717891_a_at) / Fold change /veh ECM1 (11717891_a_at) / RFU IL23R (11748794_a_at) / Fold change /veh IL23R (11748794_a_at) / RFU TNFAIP8L3 (11732012_x_at) / Fold change /veh TNFAIP8L3 (11732012_x_at) / RFU MBOAT4 (11741988_at) / Fold change /veh MBOAT4 (11741988_at) / RFU 11764193_at / Fold change /veh 11764193_at / RFU TMEM53 (11763286_at) / Fold change /veh TMEM53 (11763286_at) / RFU MAGEB2 (11727129_at) / Fold change /veh MAGEB2 (11727129_at) / RFU TMEM200A (11744735_a_at) / Fold change /veh TMEM200A (11744735_a_at) / RFU CCDC152 (11751479_a_at) / Fold change /veh CCDC152 (11751479_a_at) / RFU FAM211A (11726209_a_at) / Fold change /veh FAM211A (11726209_a_at) / RFU RGS16 (11746705_a_at) / Fold change /veh RGS16 (11746705_a_at) / RFU VCAN (11755009_s_at) / Fold change /veh VCAN (11755009_s_at) / RFU RHOB (11743442_s_at) / Fold change /veh RHOB (11743442_s_at) / RFU RGS16 (11720943_a_at) / Fold change /veh RGS16 (11720943_a_at) / RFU RGS16 (11720944_at) / Fold change /veh RGS16 (11720944_at) / RFU, VPS4B / Fold change vs veh, VPS4B / RFU, CREB1 / Fold change vs veh, CREB1 / RFU, DNAJC13 / Fold change vs veh, DNAJC13 / RFU, GNAQ / Fold change vs veh, GNAQ / RFU, CDK5R1 / Fold change vs veh, CDK5R1 / RFU, ZRANB3 / Fold change vs veh, ZRANB3 / RFU, CUL4A / Fold change vs veh, CUL4A / RFU, CCNY / Fold change vs veh, CCNY / RFU, UFL1 / Fold change vs veh, UFL1 / RFU, COG3 / Fold change vs veh, COG3 / RFU, DIAPH2 / Fold change vs veh, DIAPH2 / RFU, SKA2 / Fold change vs veh, SKA2 / RFU, AFF3 / Fold change vs veh, AFF3 / RFU, LMF1 / Fold change vs veh, LMF1 / RFU, IPO11 / Fold change vs veh, IPO11 / RFU, DFFB / Fold change vs veh, DFFB / RFU, FOXP1 / Fold change vs veh, FOXP1 / RFU, CARD8 / Fold change vs veh, CARD8 / RFU, STRN3 / Fold change vs veh, STRN3 / RFU, ADK / Fold change vs veh, ADK / RFU, RASSF2 / Fold change vs veh, RASSF2 / RFU, WIPF1 / Fold change vs veh, WIPF1 / RFU, LARP1B / Fold change vs veh, LARP1B / RFU, RASA1 / Fold change vs veh, RASA1 / RFU, RB1 / Fold change vs veh, RB1 / RFU, PPFIA1 / Fold change vs veh, PPFIA1 / RFU, MAT2A / Fold change vs veh, MAT2A / RFU, CCT5 / Fold change vs veh, CCT5 / RFU, WDR92 / Fold change vs veh, WDR92 / RFU, CUX1 / Fold change vs veh, CUX1 / RFU, TTC7A / Fold change vs veh, TTC7A / RFU, TMEM135 / Fold change vs veh, TMEM135 / RFU, DEPTOR / Fold change vs veh, DEPTOR / RFU, CPM / Fold change vs veh, CPM / RFU, DNAJB6 / Fold change vs veh, DNAJB6 / RFU, CACNA2D3 / Fold change vs veh, CACNA2D3 / RFU, DTX4 / Fold change vs veh, DTX4 / RFU, TFCP2 / Fold change vs veh, TFCP2 / RFU, GMCL1 /// GMCL1P1 / Fold change vs veh, GMCL1 /// GMCL1P1 / RFU, AEBP2 / Fold change vs veh, AEBP2 / RFU, SNHG1 /// SNORD22 /// SNORD25 /// SNORD26 /// SNORD27 /// SNORD28 /// SNORD29 /// SNORD31 / Fold change vs veh, SNHG1 /// SNORD22 /// SNORD25 /// SNORD26 /// SNORD27 /// SNORD28 /// SNORD29 /// SNORD31 / Fold change (Aza/veh), C12orf56 (ProbeSet 11735607_a_at) / Fold change (ACY-1035/veh), C12orf56 (ProbeSet 11735607_a_at) / Fold change (Aza/veh), FGFR1OP (ProbeSet 11751329_s_at) / Fold change (ACY-1035/veh), FGFR1OP (ProbeSet 11751329_s_at) / Fold change (Aza/veh), VPS36 (ProbeSet 11739960_a_at) / Fold change (ACY-1035/veh), VPS36 (ProbeSet 11739960_a_at) / RFU SYPL1 (11715823_x_at) / Fold change /veh SYPL1 (11715823_x_at) / RFU IGFBP7 (11715501_s_at) / Fold change /veh IGFBP7 (11715501_s_at) / RFU REEP3 (11722064_at) / Fold change /veh REEP3 (11722064_at) / RFU IGLL1 (11728026_x_at) / Fold change /veh IGLL1 (11728026_x_at): dose or concentration left out as unconfirmed
Conditions: ProbeSet 11719632_a_at; LIST B

Structure (SMILES): Nc1ccc(-c2cccs2)cc1NC(=O)c1ccc2c(c1)cc(C1CC1)n2CCN1CCOCC1 [ACY-1035]
- Fold change vs veh, ABCC4: 0.87
